Data from US20250092065A1, “2-(INDAZOL-5-YL)-6-(PIPERIDIN-4-YL)-1,7-NAPHTHYRIDINE DERIVATIVES AND RELATED COMPOUNDS AS MODULATORS FOR SPLICING NUCLEIC ACIDS AND FOR THE TREATMENT OF PROLIFERATIVE DISEASES” (REMIX THERAPEUTICS INC., priority 2022, published 2025).
pIC50: −log10 of the molar value. Structures can show the parent of a compound that is named as a salt. Where two headings read alike, the source gives them in different places.

Key:
[1] = test system: SMN2 mRNA; assay: RT-qPCR splicing assay, SMN2 mRNA; assay type: cell-based, human; conditions: Homo sapiens, canonical junction qPCR panel, Table 4; read-out: SMN2 IC50 (decrease in CJ mRNA levels)
Method in brief: (§1)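 Junction-specific RT-qPCR read-out: CJ and AJ isoform levels, housekeeper-normalized (GAPDH/GUSB/PPIA), ΔΔCt vs DMSO, converted to RQ then % response. Cells: A673 (DMEM/10% FBS, adhered 24 h) or K562 (IMDM/10% FBS). Compound 11-pt 3-fold, top 10 uM, 24 h, 37 °C.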

[2] = test system: Target C; assay: RT-qPCR canonical junction panel assay, Target C mRNA; assay type: cell-based; conditions: Table 4, read-out: Target C IC50 (decrease in CJ mRNA levels)
Method in brief: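 IC50 is the concentration giving 50% CJ decrease, from a 4-parameter logistic fit of percent response; response derived from ΔΔCt against housekeeper and DMSO over a fixed ΔCt window, with canonical exon-junction qPCR in compound-treated K562 or A673 cells.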

[3] = test system: K562 cells; assay: Cell Titer Glo 2.0 cell viability (toxicity) assay, K562; conditions: 500 cells/well, 72 hours
[4] = test system: HTT mRNA; assay: RT-qPCR splicing assay, HTT mRNA canonical (CJ) and alternative (AJ) junction; assay type: cell-based, human; conditions: Homo sapiens; for AC50: HTT alternative junction mRNA increase, read-out: HTT AJ (increase in alternative junction mRNA, AC50)
Method in brief: as §1

[5] = test system: MYB mRNA; assay: RT-qPCR splicing assay, MYB mRNA canonical (CJ) and alternative (AJ) junction; assay type: cell-based, human; conditions: Homo sapiens; for AC50: MYB alternative junction mRNA increase, read-out: MYB AJ (increase in alternative junction mRNA, AC50)
Method in brief: as §1

[6] = RT-qPCR, HTT canonical junction mRNA decrease, read-out: HTT CJ (decrease in canonical junction mRNA, IC50)
[7] = canonical junction qPCR panel, Table 4, read-out: HTT IC50 (decrease in CJ mRNA levels)
[8] = RT-qPCR, MYB canonical junction mRNA decrease, read-out: MYB CJ (decrease in canonical junction mRNA, IC50)
[9] = canonical junction qPCR panel, Table 4, read-out: MYB IC50 (decrease in CJ mRNA levels)

| Compound | pIC50 [1] | pIC50 [2] | pIC50 [4, 6] | pIC50 [4, 7] | pIC50 [5, 8] | pIC50 [5, 9] | Effect of Exemplary Compounds on Cell Viability, K562 [3] | AC50 ([4]; RT-qPCR) [µM] | AC50 ([5]; RT-qPCR) [µM] |
| --- | --- | --- | --- | --- | --- | --- | --- | --- | --- |
| Cn1cc2cc(-c3ncc4cc(N5CCC(N6CCC6)CC5)ccc4n3)cc(F)c2n1 [Compound 787, 6-[4-(azetidin-1-yl)piperidin-1-yl]-2-(7-fluoro-2-methylindazol-5-yl)quinazoline] | > 7.00 | 5.00 to 6.00 | 5.00 to 6.00 | 5.00 to 6.00 | 6.00 to 7.00 | 6.00 to 7.00 | B (B represents 100-1000 nM) | 1 to 10 | 0.1 to 1 |
| Cc1nc(-c2cc(F)c3nn(C)cc3c2)nc2ccc(N3CCC(N4CCC4)CC3)cc12 [Compound 788, 6-[4-(azetidin-1-yl)piperidin-1-yl]-2-(7-fluoro-2-methylindazol-5-yl)-4-methylquinazoline] | > 7.00 | 5.00 to 6.00 | 5.00 to 6.00 | 5.00 to 6.00 | 5.00 to 6.00 | 5.00 to 6.00 | B (B represents 100-1000 nM) | 1 to 10 | 0.1 to 1 |
| COc1cc(-c2ncc3cc(N4C[C@H](C)N[C@@H](C)C4)ccc3n2)cn2cc(C)nc12 [Compound 816] | > 7.00 | < 5.00 | 5.00 to 6.00 | 5.00 to 6.00 | 6.00 to 7.00 | 6.00 to 7.00 | B (B represents 100-1000 nM) | 1 to 10 | < 0.1 |
| Cc1cn2cc(-c3ncc4cc(N5C[C@H](C)N[C@@H](C)C5)ccc4n3)cc(C#N)c2n1 [Compound 817] | > 7.00 | 5.00 to 6.00 | 6.00 to 7.00 | 6.00 to 7.00 | > 7.00 | > 7.00 | B (B represents 100-1000 nM) | 1 to 10 | < 0.1 |
| Cc1nc2c(F)cc(-c3ncc4cc(N5C[C@H](C)N[C@@H](C)C5)ccc4n3)cn2n1 [Compound 819, 6-[(3S,5S)-3,5-dimethylpiperazin-1-yl]-2-{8-fluoro-2-methyl-[1,2,4]triazolo[1,5-a]pyridin-6-yl}quinazoline hydrochloride] | > 7.00 | 5.00 to 6.00 | 5.00 to 6.00 | 5.00 to 6.00 | 6.00 to 7.00 | 6.00 to 7.00 | B (B represents 100-1000 nM) | 1 to 10 | 0.1 to 1 |
| CCc1cn2cc(-c3ncc4cc(N5C[C@H](C)N[C@@H](C)C5)ccc4n3)cc(F)c2n1 [Compound 821] | 6.00 to 7.00 | < 5.00 | < 5.00 | < 5.00 | 5.00 to 6.00 | 5.00 to 6.00 | C (C represents 1000-9999 nM) | > 10 | > 10 |

Now from value to compound, other results behind:

| pIC50 [1] | pIC50 [2] | pIC50 [4, 6] | pIC50 [4, 7] | pIC50 [5, 8] | pIC50 [5, 9] | Compound | Effect of Exemplary Compounds on Cell Viability, K562 [3] | AC50 ([4]; RT-qPCR) [µM] | AC50 ([5]; RT-qPCR) [µM] |
| --- | --- | --- | --- | --- | --- | --- | --- | --- | --- |
| > 7.00 | < 5.00 | 5.00 to 6.00 | 5.00 to 6.00 | 6.00 to 7.00 | 6.00 to 7.00 | COc1nc(-c2ncc3cc(N4C[C@H](C)N[C@@H](C)C4)ccc3n2)cn2cc(C)nc12 [Compound 823] | B (B represents 100-1000 nM) | 1 to 10 | 0.1 to 1 |
| > 7.00 | 5.00 to 6.00 | 6.00 to 7.00 | 6.00 to 7.00 | 6.00 to 7.00 | 6.00 to 7.00 | Cc1cn2cc(-c3ncc4cc(N5C[C@H](C)N(C)[C@@H](C)C5)ccc4n3)cc(F)c2n1 [Compound 824] | B (B represents 100-1000 nM) | 1 to 10 | 0.1 to 1 |
| > 7.00 | 5.00 to 6.00 | 5.00 to 6.00 | 5.00 to 6.00 | 6.00 to 7.00 | 6.00 to 7.00 | Cc1nc2c(F)cc(-c3ncc4cc(N5C[C@@H](C)N[C@@H](C)C5)ccc4n3)cn2n1 [Compound 825, 6-[(3R,5S)-3,5-dimethylpiperazin-1-yl]-2-{8-fluoro-2-methyl-[1,2,4]triazolo[1,5-a]pyridin-6-yl}quinazoline] | C (C represents 1000-9999 nM) | 1 to 10 | 0.1 to 1 |
| > 7.00 | 5.00 to 6.00 | 5.00 to 6.00 | 5.00 to 6.00 | 6.00 to 7.00 | 6.00 to 7.00 | Cc1cn2cc(-c3ncc4cc(N5C[C@@H](C)N(C)[C@@H](C)C5)ccc4n3)cc(F)c2n1 [Compound 826, 2-{8-fluoro-2-methylimidazo[1,2-a]pyridin-6-yl}-6-[(3R,5S)-3,4,5-trimethylpiperazin-1-yl]quinazoline] | B (B represents 100-1000 nM) | 1 to 10 | < 0.1 |
